In patent US10023708B2, “Method of producing a delivery device” (PTT HOLDING APS, priority 2011, dated 2018):

Key:
[1] = Release of miconazole nitrate from loaded IPN discs versus PDMS discs; type: physicochemical; conditions: 75° C., 2 hours
Description: a) 10 PDMS (Polydimethylsiloxane) (silpuran 6000/40 supplied by Wacker) discs within the same mass range were used per high pressure vessel for loading drug into PDMS. […] The reactors were then coupled to a scCO2 system. scCO2 was applied at 350 bars until the pressure inside the reactors also reached 350 bars. The pressure remained at 350 bars throughout the procedure. The reaction was left for equilibration for 2 hours. d) The pressure was released, and the discs loaded with miconazole nitrate were gently cleaned with ethanol, and stored protected from light. a) 10 PDMS (Polydimethylsiloxane) discs within the same mass range were used per high pressure vessel for loading drug into PDMS. […] The reactors were then coupled to a scCO2 system. scCO2 was applied at 350 bars until the pressure inside the reactors also reached 350 bars. This pressure was maintained throughout the procedure. The reaction was left for equilibration for 2 hours. d) The pressure was released, and the discs loaded with miconazole nitrate were gently cleaned with ethanol, and stored protected from light.

[2] = Loading of Ceragenin CSA-13 into IPN discs and its release; conditions: IPN discs about 20% PHEMA loaded in EtOH + CO2
Description: 6 IPN discs (010 mm, thickness 1-2 mm) obtained from Example 1 and with about 20% PHEMA (total mass about 1.3266 g) was loaded with about 500 mg Ceragenin CSA-13. The loading solvent was 2.00 ml 99.8% EtOH supplied by Merck (Germany) and N48 CO2 (supplied by Air Liquid Denmark A/S (Denmark)). The Ceragenin CSA-13 was initially dissolved in the 2.00 ml 99.8% EtOH and injected into a reactor of 16 ml comprising the discs. The pressure was raised to about 300 bars by injecting CO2 and the temperature was raised to about 75° C. The discs were treated at this pressure and temperature under stirring (1100 rpm) for 21 hours and 50 minutes, where after the pressure was reduced, the discs were withdrawn and allowed to cool down.

[3] = Determination of work of adhesion Wsc between chemical compound and first polymer; type: physicochemical
Excerpt: (§1) The “work of adhesion” between two dissimilar materials is a measure of the energy required to separate the two dissimilar materials from each other. The work of adhesion is indicated with Wxy, wherein x and y respectively are the two dissimilar materials in question. Wxy is herein determined in joule per square meter of contact area of the x and y material to be separated (J/m^2). The contact area of the second polymer and the chemical component is proportional to the amount of a given chemical component and accordingly the Whc value could also be determined as J/mol chemical component. Work of adhesion (Whc) between the second polymer (h) and the chemical component (c) is determined according to the formula: Whc=γhn+γcn−γch, wherein γhn is the interfacial tension between h and n, γcn is the interfacial tension between c and n, and γch is the interfacial tension between c and h, where h=second polymer, n=normal saline and c=chemical component. The respective values of interfacial tension can be determined by any well known method or they can be calculated. Interfacial tensions can be determined from surface tensions of the individual compound, which can be measured or estimated from e.g. HSP which can be measured or estimated from group contribution calculations based on the chemical structure of the individual compound in question. […] At 1 bar and 25° C. the respective work of adhesion between sulfamethizole and the two polymers PDMS and PHEMA of the IPN of Example 1 was determined with respectively EtOH and water as loading solvents. Work of adhesion between sulfamethizole and the two polymers PDMS and PHEMA of the IPN of Example 1 was determined with varying volume fractions of EtOH in a loading solvent of EtOH and scCO2. The determination was determined at 300 bars and 75° C.

[4] = Release of sulfamethizole from loaded IPN discs soaked in phosphate buffer; type: physicochemical; conditions: soaked in phosphate buffer solution at pH 4.5 over a period of about 14 days
Description: 2.5 g sulfamethizole (Unikem) was mixed with 60 ml sodium thiosulfate solution (12 ml 0.1 M was diluted to 60 ml using deionized water).
Drug loading was performed by placing 10 discs obtained from Example 1 in a 16 ml reactor. 2.00 ml of the above sulfamethizole mixture and 2.00 ml 99.8% EtOH supplied by Merck (Germany) was fed to the reactor. The discs were kept under stirring during the treatment time. The pressure in the reactor was initially raised to about 100 bars and with a temperature of about 44° C. Thereafter the temperature was raised to 75° C. and the pressure increased to 300 bars with CO2 (N48 CO2 supplied by Air Liquid Denmark A/S).

[5] = Determination of work of adhesion Whc between chemical compound and second polymer; type: physicochemical
Excerpt: as §1

[6] = 1 bar, 25° C., loading solvent EtOH
[7] = 1 bar, 25° C., loading solvent Water
[8] = 300 bars, 75° C., volume fractions EtOH 0.0000 / scCO2 1.0000
[9] = 300 bars, 75° C., volume fractions EtOH 0.0625 / scCO2 0.9375
[10] = 300 bars, 75° C., volume fractions EtOH 0.1250 / scCO2 0.8750
[11] = 300 bars, 75° C., volume fractions EtOH 0.1875 / scCO2 0.8125
[12] = 300 bars, 75° C., volume fractions EtOH 0.2500 / scCO2 0.7500
[13] = 300 bars, 75° C., volume fractions EtOH 0.3125 / scCO2 0.6875
[14] = 300 bars, 75° C., volume fractions EtOH 0.3750 / scCO2 0.6250
[15] = 300 bars, 75° C., volume fractions EtOH 0.4375 / scCO2 0.5625
[16] = 300 bars, 75° C., volume fractions EtOH 0.5000 / scCO2 0.5000
[17] = 300 bars, 75° C., volume fractions EtOH 0.5625 / scCO2 0.4375
[18] = 300 bars, 75° C., volume fractions EtOH 0.6250 / scCO2 0.3750
[19] = 300 bars, 75° C., volume fractions EtOH 0.6875 / scCO2 0.3125
[20] = 300 bars, 75° C., volume fractions EtOH 0.7500 / scCO2 0.2500
[21] = 300 bars, 75° C., volume fractions EtOH 0.8125 / scCO2 0.1875
[22] = 300 bars, 75° C., volume fractions EtOH 0.8750 / scCO2 0.1250
[23] = 300 bars, 75° C., volume fractions EtOH 0.9375 / scCO2 0.0625
[24] = 300 bars, 75° C., volume fractions EtOH 1.0000 / scCO2 0.0000

## Clc1ccc(COC(Cn2ccnc2)c2ccc(Cl)cc2Cl)c(Cl)c1 (stereo not drawn) [miconazole nitrate]
[1]; Test 1: loaded using scCO2, 350 bars
  amount releasable from the IPN discs compared with the PDMS discs: much higher
[1]; Test 2: loaded using scCO2 and methanol, 350 bars
  amount releasable from the IPN discs compared with the PDMS discs: much higher

## CCCCCCCCNCCC[C@@H](C)[C@H]1CC[C@H]2[C@@H]3[C@H](OCCCN)C[C@@H]4C[C@H](OCCCN)CC[C@]4(C)[C@H]3C[C@H](OCCCN)[C@]12C [Ceragenin CSA-13]
[2]
  release from the delivery device, microbiological effect: can be released in sufficient amounts to provide a significant microbiological effect

## Cc1nnc(NS(=O)(=O)c2ccc(N)cc2)s1 [sulfamethizole]
[3]; [6]
  Work of adhesion Wsc s = PDMS c = sulfamethizole: 6.3434 J/m^2
[3]; [7]
  Work of adhesion Wsc s = PDMS c = sulfamethizole: 57.7309 J/m^2
[3]; [8]
  Work of adhesion Wsc s = PDMS c = sulfamethizole: 14.1969 J/m^2
[3]; [9]
  Work of adhesion Wsc s = PDMS c = sulfamethizole: 11.2585 J/m^2
[3]; [10]
  Work of adhesion Wsc s = PDMS c = sulfamethizole: 8.714 J/m^2
[3]; [11]
  Work of adhesion Wsc s = PDMS c = sulfamethizole: 6.5641 J/m^2
[3]; [12]
  Work of adhesion Wsc s = PDMS c = sulfamethizole: 4.8092 J/m^2
[3]; [13]
  Work of adhesion Wsc s = PDMS c = sulfamethizole: 3.4498 J/m^2
[3]; [14]
  Work of adhesion Wsc s = PDMS c = sulfamethizole: 2.4864 J/m^2
[3]; [15]
  Work of adhesion Wsc s = PDMS c = sulfamethizole: 1.9195 J/m^2
[3]; [16]
  Work of adhesion Wsc s = PDMS c = sulfamethizole: 1.7497 J/m^2
[3]; [17]
  Work of adhesion Wsc s = PDMS c = sulfamethizole: 1.9773 J/m^2
[3]; [18]
  Work of adhesion Wsc s = PDMS c = sulfamethizole: 2.6029 J/m^2
[3]; [19]
  Work of adhesion Wsc s = PDMS c = sulfamethizole: 3.6271 J/m^2
[3]; [20]
  Work of adhesion Wsc s = PDMS c = sulfamethizole: 5.0502 J/m^2
[3]; [21]
  Work of adhesion Wsc s = PDMS c = sulfamethizole: 6.8727 J/m^2
[3]; [22]
  Work of adhesion Wsc s = PDMS c = sulfamethizole: 9.0953 J/m^2
[3]; [23]
  Work of adhesion Wsc s = PDMS c = sulfamethizole: 11.7183 J/m^2
[3]; [24]
  Work of adhesion Wsc s = PDMS c = sulfamethizole: 14.7422 J/m^2
[4]
  amount of loaded compound released from the discs: the major amount
[5]; [6]
  Work of adhesion Whc h = PHEMA c = sulfamethizole: 3.8908 J/m^2
[5]; [7]
  Work of adhesion Whc h = PHEMA c = sulfamethizole: 38.3326 J/m^2
[5]; [8]
  Work of adhesion Whc h = PHEMA c = sulfamethizole: 29.8588 J/m^2
[5]; [9]
  Work of adhesion Whc h = PHEMA c = sulfamethizole: 25.3418 J/m^2
[5]; [10]
  Work of adhesion Whc h = PHEMA c = sulfamethizole: 21.2182 J/m^2
[5]; [11]
  Work of adhesion Whc h = PHEMA c = sulfamethizole: 17.4885 J/m^2
[5]; [12]
  Work of adhesion Whc h = PHEMA c = sulfamethizole: 14.1531 J/m^2
[5]; [13]
  Work of adhesion Whc h = PHEMA c = sulfamethizole: 11.2126 J/m^2
[5]; [14]
  Work of adhesion Whc h = PHEMA c = sulfamethizole: 8.6675 J/m^2
[5]; [15]
  Work of adhesion Whc h = PHEMA c = sulfamethizole: 6.5181 J/m^2
[5]; [16]
  Work of adhesion Whc h = PHEMA c = sulfamethizole: 4.7652 J/m^2
[5]; [17]
  Work of adhesion Whc h = PHEMA c = sulfamethizole: 3.4091 J/m^2
[5]; [18]
  Work of adhesion Whc h = PHEMA c = sulfamethizole: 2.4503 J/m^2
[5]; [19]
  Work of adhesion Whc h = PHEMA c = sulfamethizole: 1.8894 J/m^2
[5]; [20]
  Work of adhesion Whc h = PHEMA c = sulfamethizole: 1.7267 J/m^2
[5]; [21]
  Work of adhesion Whc h = PHEMA c = sulfamethizole: 1.9629 J/m^2
[5]; [22]
  Work of adhesion Whc h = PHEMA c = sulfamethizole: 2.5985 J/m^2
[5]; [23]
  Work of adhesion Whc h = PHEMA c = sulfamethizole: 3.6338 J/m^2
[5]; [24]
  Work of adhesion Whc h = PHEMA c = sulfamethizole: 5.0694 J/m^2
